We go through nine molecules from ChEMBL document CHEMBL3870333, “Synthesis of Keap1-phosphorylated p62 and Keap1-Nrf2 protein-protein interaction inhibitors and their inhibitory activity” (Bioorg Med Chem Lett, 2016).

One assay addresses Keap1/Nrf2 (Homo sapiens, UniProt Q14145). The assay is described as follows: Inhibition of recombinant GST-His-tagged Keap1-DC domain (321 to 609 residues) (unknown origin) expressed in Escherichia coli/FAM-labeled Nrf2 (unknown origin) interaction measured after 30 mins by fluorescence polarization assay. (In general: Fluorescence polarisation rises when a labelled molecule tumbles more slowly, as on binding a larger partner.)

For a further assay, the species on record is Homo sapiens. The assay is described as follows: Selectivity index, ratio of IC50 for recombinant GST-His-tagged Keap1-DC domain (321 to 609 residues) (unknown origin) expressed in Escherichia coli/FAM-labeled Nrf2 (unknown origin) interaction to IC50 for recombinant GST-His-tagged Keap1-DC domain (321 to 609 residues) (unknown origin) expressed in Escherichia coli/FAM-labeled phosphorylated p62 (unknown origin) interaction.

Assay [1] concerns the target Sequestosome-1/Kelch-like ECH-associated protein 1 (Homo sapiens, UniProt Q14145). The assay is described as follows: Inhibition of recombinant GST-His-tagged Keap1-DC domain (321 to 609 residues) (unknown origin) expressed in Escherichia coli/FAM-labeled phosphorylated p62 (unknown origin) interaction measured after 30 mins by fluorescence polarization assay.

Sequence of Sequestosome-1/Kelch-like ECH-associated protein 1 (Q14145 whole entry, the tested form may be a part): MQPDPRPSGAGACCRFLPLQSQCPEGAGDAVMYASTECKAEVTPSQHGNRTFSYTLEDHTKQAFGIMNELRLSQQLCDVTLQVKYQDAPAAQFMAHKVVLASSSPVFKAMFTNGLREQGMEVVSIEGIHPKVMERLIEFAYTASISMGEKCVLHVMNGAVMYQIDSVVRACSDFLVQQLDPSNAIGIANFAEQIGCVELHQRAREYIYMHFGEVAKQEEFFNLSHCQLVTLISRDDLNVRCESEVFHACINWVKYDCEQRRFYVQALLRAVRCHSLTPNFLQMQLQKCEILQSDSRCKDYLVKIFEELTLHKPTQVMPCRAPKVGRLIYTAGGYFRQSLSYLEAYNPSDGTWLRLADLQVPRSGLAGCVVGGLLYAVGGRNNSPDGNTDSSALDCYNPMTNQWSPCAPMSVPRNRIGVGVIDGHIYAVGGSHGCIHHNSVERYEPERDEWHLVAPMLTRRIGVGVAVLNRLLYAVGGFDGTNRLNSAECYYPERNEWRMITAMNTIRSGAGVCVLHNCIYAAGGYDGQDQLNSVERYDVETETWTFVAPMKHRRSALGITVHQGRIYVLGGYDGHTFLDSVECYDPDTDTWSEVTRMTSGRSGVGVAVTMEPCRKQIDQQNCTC
Sequence of Sequestosome-1/Kelch-like ECH-associated protein 1 (Q13501 whole entry, further chain, the tested form may be a part): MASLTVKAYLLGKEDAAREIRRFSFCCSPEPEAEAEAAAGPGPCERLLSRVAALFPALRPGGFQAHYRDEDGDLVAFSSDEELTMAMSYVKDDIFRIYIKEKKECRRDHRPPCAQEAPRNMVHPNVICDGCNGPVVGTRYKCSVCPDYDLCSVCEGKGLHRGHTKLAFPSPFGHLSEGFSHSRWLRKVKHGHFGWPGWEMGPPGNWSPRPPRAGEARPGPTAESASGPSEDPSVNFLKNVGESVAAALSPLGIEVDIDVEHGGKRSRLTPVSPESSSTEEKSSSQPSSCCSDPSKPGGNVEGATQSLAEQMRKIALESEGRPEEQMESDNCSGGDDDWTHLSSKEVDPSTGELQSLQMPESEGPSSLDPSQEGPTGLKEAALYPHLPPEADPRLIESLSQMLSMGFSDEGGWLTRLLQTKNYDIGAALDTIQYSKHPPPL
Sequence of Keap1/Nrf2 (Q16236 whole entry, the tested form may be a part): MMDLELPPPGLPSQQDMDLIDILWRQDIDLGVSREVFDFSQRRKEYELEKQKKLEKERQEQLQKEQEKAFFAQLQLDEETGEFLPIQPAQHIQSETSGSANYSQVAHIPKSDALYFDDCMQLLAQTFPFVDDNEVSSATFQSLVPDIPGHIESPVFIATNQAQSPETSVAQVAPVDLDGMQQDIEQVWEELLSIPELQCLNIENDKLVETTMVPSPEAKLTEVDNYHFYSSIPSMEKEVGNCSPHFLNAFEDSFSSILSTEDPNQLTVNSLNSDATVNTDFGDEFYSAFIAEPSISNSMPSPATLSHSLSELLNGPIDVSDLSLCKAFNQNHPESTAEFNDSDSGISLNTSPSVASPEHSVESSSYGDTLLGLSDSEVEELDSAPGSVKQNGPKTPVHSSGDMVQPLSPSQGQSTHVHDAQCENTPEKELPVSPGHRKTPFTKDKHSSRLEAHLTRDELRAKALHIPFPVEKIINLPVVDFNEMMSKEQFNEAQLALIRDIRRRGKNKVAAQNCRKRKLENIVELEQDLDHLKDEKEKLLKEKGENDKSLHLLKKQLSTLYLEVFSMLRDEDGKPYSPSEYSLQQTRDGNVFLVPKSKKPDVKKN
Sequence of Keap1/Nrf2 (Q14145 whole entry, the tested form may be a part): as the sequence (Q14145 whole entry, the tested form may be a part) above

As a reminder, the IC50 is the concentration that inhibits the measured activity by half. `CCOc1ccc(S(=O)(=O)Nc2cc(CCCC(=O)O)c(NS(=O)(=O)c3ccc(OCC)cc3)c3ccccc23)cc1`: at Keap1/Nrf2, the IC50 was 150 nM. In addition, in the assay listed under Homo sapiens, the Ratio IC50 came to 1.
On to `CCOc1ccc(S(=O)(=O)Nc2cc(SCC(=O)O)c(NS(=O)(=O)c3ccc(OCC)cc3)c3ccccc23)cc1`, for which the IC50 is 180 nM in assay [1] and 200 nM on Keap1/Nrf2. Also, the Ratio IC50 in the assay filed under Homo sapiens amounted to 1.1.
For `COc1ccc(S(=O)(=O)Nc2cc(CC(C)=O)c(NS(=O)(=O)c3ccc(OC)cc3)c3ccccc23)cc1`, in that order: 2400 nM, 3200 nM and 1.3.
As to `CCOc1ccc(S(=O)(=O)Nc2cc(CCC(=O)O)c(NS(=O)(=O)c3ccc(OCC)cc3)c3ccccc23)cc1`, the IC50 was 190 nM in assay [1] and 230 nM on Keap1/Nrf2. The Ratio IC50 in the assay listed under Homo sapiens was found to be 1.2.
As to `CCOc1ccc(S(=O)(=O)Nc2cc(CC(C)=O)c(NS(=O)(=O)c3ccc(OCC)cc3)c3ccccc23)cc1`, the IC50 in assay [1] stood at 1500 nM; on Keap1/Nrf2, 6200 nM. For the same molecule, the Ratio IC50 in the assay filed under Homo sapiens turned out to be 4.1.
For `CCOc1ccc(S(=O)(=O)Nc2ccc(NS(=O)(=O)c3ccc(OCC)cc3)c3ccccc23)cc1` the same measures were 1400 nM, 2800 nM and 2.
On to `CCOc1ccc(S(=O)(=O)Nc2cc(SCC(=O)OC)c(NS(=O)(=O)c3ccc(OCC)cc3)c3ccccc23)cc1`, for which the IC50 in assay [1] was determined as 370 nM; on Keap1/Nrf2, 720 nM. Moreover, in the assay filed under Homo sapiens, the Ratio IC50 was determined as 1.9.
Take `CCOc1ccc(S(=O)(=O)Nc2cc(Sc3nc[nH]n3)c(NS(=O)(=O)c3ccc(OCC)cc3)c3ccccc23)cc1`: the IC50 in assay [1] was determined as 1000 nM; on Keap1/Nrf2, 1300 nM. Moreover, the Ratio IC50 in the assay filed under Homo sapiens came out at 1.3.
Take `CCOc1ccc(S(=O)(=O)Nc2cc(CC(=O)O)c(NS(=O)(=O)c3ccc(OCC)cc3)c3ccccc23)cc1`: the IC50 stood at 230 nM in assay [1] and 320 nM at Keap1/Nrf2. For the same molecule, the Ratio IC50 in the assay listed under Homo sapiens stood at 1.4.
